Reference: patent publication US10479784B2, “Substituted pyrazin-2-amines as inhibitors of ATR kinase” (Vertex Pharmaceuticals Incorporated, priority 2008, dated 2019)

Molecular target: full-length ATR (Homo sapiens (Human), UniProt Q13535)
Experiment: ATR Inhibition Assay (radioactive-phosphate incorporation)
Assay type: biochemical
Conditions: read-out: ATR Ki
How it was run: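 Ki(app) was derived by non-linear regression of background-corrected initial rates of 33P incorporation into an 800 μM target peptide, read by phosphocellulose filter scintillation counting. Reaction conditions: 5 nM full-length ATR, 10 μM [γ-33P]ATP, pH 7.5 Tris buffer with MgCl2 and DTT, 25 °C, 10-min preincubation, 24 h run.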

Sequence of full-length ATR (Q13535 whole entry): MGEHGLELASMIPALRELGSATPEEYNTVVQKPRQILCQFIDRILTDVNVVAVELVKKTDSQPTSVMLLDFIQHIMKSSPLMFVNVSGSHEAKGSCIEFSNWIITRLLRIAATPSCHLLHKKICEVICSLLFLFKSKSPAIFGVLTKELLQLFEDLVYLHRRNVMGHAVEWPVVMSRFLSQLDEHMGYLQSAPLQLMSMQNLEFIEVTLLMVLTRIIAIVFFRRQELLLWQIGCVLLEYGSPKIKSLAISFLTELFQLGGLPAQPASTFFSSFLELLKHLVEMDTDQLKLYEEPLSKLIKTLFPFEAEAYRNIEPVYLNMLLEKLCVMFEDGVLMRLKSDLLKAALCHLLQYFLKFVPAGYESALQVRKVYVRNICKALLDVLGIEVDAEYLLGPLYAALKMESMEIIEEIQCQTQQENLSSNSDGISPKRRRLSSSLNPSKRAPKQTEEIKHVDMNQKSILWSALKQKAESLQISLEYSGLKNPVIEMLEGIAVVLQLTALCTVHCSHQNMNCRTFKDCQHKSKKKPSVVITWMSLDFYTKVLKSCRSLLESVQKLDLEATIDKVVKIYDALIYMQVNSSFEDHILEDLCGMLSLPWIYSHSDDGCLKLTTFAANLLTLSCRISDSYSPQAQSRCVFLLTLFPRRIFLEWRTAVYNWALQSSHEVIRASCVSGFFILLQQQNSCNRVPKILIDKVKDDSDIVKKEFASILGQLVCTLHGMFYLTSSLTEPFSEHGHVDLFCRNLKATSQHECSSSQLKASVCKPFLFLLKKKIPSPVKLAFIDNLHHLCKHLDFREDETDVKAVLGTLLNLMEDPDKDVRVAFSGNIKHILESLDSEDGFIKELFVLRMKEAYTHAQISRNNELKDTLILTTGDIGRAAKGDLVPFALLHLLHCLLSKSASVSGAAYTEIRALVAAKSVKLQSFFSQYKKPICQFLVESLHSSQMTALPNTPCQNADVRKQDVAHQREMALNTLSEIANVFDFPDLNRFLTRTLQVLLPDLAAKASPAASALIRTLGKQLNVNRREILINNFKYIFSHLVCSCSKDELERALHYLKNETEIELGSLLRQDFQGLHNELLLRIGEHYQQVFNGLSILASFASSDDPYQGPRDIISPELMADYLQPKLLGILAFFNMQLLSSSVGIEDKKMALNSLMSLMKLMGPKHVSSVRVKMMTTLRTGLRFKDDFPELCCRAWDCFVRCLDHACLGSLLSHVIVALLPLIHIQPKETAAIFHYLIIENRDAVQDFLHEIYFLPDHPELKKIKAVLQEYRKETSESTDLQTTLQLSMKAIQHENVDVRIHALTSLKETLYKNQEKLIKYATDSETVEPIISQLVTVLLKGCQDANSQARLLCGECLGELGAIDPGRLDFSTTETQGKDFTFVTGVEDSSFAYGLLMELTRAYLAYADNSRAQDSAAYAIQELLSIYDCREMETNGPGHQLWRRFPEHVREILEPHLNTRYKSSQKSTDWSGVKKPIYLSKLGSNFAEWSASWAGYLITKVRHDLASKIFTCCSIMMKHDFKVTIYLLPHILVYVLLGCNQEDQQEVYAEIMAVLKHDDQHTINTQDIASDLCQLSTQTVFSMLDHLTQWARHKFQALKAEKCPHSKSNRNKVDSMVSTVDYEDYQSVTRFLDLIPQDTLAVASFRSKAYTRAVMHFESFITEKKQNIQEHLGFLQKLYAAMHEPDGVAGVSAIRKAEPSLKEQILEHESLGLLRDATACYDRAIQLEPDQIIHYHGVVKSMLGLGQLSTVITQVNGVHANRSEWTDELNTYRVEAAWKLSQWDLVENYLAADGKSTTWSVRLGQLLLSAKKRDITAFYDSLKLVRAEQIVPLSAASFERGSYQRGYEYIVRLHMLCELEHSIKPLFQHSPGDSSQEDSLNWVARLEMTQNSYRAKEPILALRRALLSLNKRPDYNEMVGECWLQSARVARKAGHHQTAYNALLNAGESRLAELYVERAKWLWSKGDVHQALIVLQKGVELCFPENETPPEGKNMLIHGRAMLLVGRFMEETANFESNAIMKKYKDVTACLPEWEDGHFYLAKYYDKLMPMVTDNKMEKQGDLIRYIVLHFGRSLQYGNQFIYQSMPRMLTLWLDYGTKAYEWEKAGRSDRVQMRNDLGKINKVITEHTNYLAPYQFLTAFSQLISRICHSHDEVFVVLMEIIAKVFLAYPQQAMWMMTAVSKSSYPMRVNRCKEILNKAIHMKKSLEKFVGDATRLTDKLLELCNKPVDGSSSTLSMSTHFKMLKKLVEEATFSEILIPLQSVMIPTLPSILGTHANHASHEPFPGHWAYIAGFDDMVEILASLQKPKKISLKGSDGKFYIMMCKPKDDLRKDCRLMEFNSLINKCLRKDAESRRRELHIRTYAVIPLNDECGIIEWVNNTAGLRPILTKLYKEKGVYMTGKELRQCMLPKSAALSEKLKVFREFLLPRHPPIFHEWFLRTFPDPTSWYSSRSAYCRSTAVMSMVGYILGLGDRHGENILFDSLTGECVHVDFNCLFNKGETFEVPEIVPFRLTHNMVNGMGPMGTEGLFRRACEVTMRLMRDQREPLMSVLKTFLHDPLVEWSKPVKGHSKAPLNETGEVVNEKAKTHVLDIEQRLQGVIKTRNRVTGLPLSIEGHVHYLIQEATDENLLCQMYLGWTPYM

SMILES | Ki
CN(C)C(=O)c1ccc(-c2cnc(N)c(-c3nnc(-c4ccncc4)o3)n2)cc1 [IA-67] | 10 to 100 nM
C#Cc1ccccc1-c1cnc(N)c(-c2nnc(-c3ccccc3)o2)n1 [IA-194, 5-(2-ethynylphenyl)-3-(5-phenyl-1,3,4-oxadiazol-2-yl)pyrazin-2-amine] | 100 to 5000 nM
Nc1ncc(-c2ccc(C(=O)N3CCCNCC3)cc2)nc1-c1cc(-c2ccccc2)no1 [IIA-3] | ≤ 10 nM
CC(C)S(=O)(=O)c1ccc(-c2cnc(N)c(-c3nnc(NC(=O)[C@@H]4CCCN4)o3)n2)cc1 [IA-217, (2S)—N-[5-[3-amino-6-(4-isopropylsulfonylphenyl)pyrazin-2-yl]-1,3,4-oxadiazol-2-yl]pyrrolidine-2-carboxamide] | 100 to 5000 nM
CNCc1ccc(-c2nnc(-c3nc(-c4ccc(S(=O)(=O)N5CCC5)cc4)cnc3N)o2)cc1 [IA-297, 5-[4-(azetidin-1-ylsulfonyl)phenyl]-3-[5-[4-(methylaminomethyl)phenyl]-1,3,4-oxadiazol-2-yl]pyrazin-2-amine] | ≤ 10 nM
Nc1ncc(-c2cccc(C(=O)N3CCNCC3)c2)nc1C(=O)Nc1ccccc1 [Compound I-53, 3-amino-N-phenyl-6-(3-(piperazine-1-carbonyl)phenyl) pyrazine-2-carboxamide] | 100 to 5000 nM
Nc1ncc(-c2ccccc2-c2ccccc2)nc1-c1nnc(-c2ccccc2)o1 [IA-134, 3-(5-phenyl-1,3,4-oxadiazol-2-yl)-5-(2-phenylphenyl)pyrazin-2-amine] | 100 to 5000 nM
CC(C)S(=O)(=O)c1ccc(-c2cnc(N)c(-c3nnc(NC(=O)[C@@H]4CCCCN4)o3)n2)cc1 [IA-211, (2S)—N-[5-[3-amino-6-(4-isopropylsulfonylphenyl)pyrazin-2-yl]-1,3,4-oxadiazol-2-yl]piperidine-2-carboxamide] | 100 to 5000 nM
CCCNCc1ccc(-c2cc(-c3nc(-c4ccc(S(=O)(=O)C(C)C)cc4)cnc3N)on2)cc1 [IIA-6, 5-(4-(isopropylsulfonyl)phenyl)-3-(3-(4-((propylamino)methyl)phenyl)isoxazol-5-yl)pyrazin-2-amine] | ≤ 10 nM
Nc1ncc(-c2cccnc2)nc1C(=O)Nc1cccc2cc[nH]c12 [Compound I-83, 3-amino-N-(1H-indol-7-yl)-6-(pyridin-3-yl)pyrazine-2-carboxamide] | 100 to 5000 nM
N#Cc1cnccc1-c1cnc(N)c(C(=O)Nc2nc3ccccc3[nH]2)n1 [Compound V-3] | ≤ 10 nM
CC(C)S(=O)(=O)c1ccc(-c2cnc(N)c(-c3nnc(-c4ccccc4O)o3)n2)cc1 [IA-235, 2-[5-[3-amino-6-(4-isopropylsulfonylphenyl)pyrazin-2-yl]-1,3,4-oxadiazol-2-yl]phenol] | ≤ 10 nM
CS(=O)(=O)c1ccc(-c2cnc(N)c(C(=O)Nc3ccc4cc[nH]c4n3)n2)cc1 [Compound V-12] | ≤ 10 nM
Cc1ccsc1-c1nnc(-c2nc(-c3ccc(C(=O)N4CCCNCC4)cc3C#N)cnc2N)o1 [IA-181, 2-(5-amino-6-(5-(3-methylthiophen-2-yl)-1,3,4-oxadiazol-2-yl)pyrazin-2-yl)-5-(1,4-diazepane-1-carbonyl)benzonitrile] | ≤ 10 nM
CNCc1ccc(-c2cc(-c3nc(-c4ccc(S(=O)(=O)C(C)C)cc4)cnc3N)on2)c(C)c1 [IIA-12, 5-(4-isopropylsulfonylphenyl)-3-[3-[2-methyl-4-(methylaminomethyl)phenyl]isoxazol-5-yl]pyrazin-2-amine] | ≤ 10 nM
Nc1ncc(-c2ccc(C(=O)N3CCCCC3)cc2)nc1C(=O)Nc1ccccc1 [Compound I-78, 3-amino-N-phenyl-6-(4-(piperidine-1-carbonyl)phenyl)pyrazine-2-carboxamide] | 10 to 100 nM
CNCc1ccc(-c2nnc(-c3nc(-c4ccc(S(=O)(=O)C(C)C)cc4)cnc3N)o2)cc1Cl [IA-309, 3-[5-[3-chloro-4-(methylaminomethyl)phenyl]-1,3,4-oxadiazol-2-yl]-5-(4-isopropylsulfonylphenyl)pyrazin-2-amine] | ≤ 10 nM
CN(C)C(=O)c1ccc(-c2cnc(N)c(-c3nnc(-c4cccn4C)o3)n2)cc1 [IA-135, 4-[5-amino-6-[5-(1-methylpyrrol-2-yl)-1,3,4-oxadiazol-2-yl]pyrazin-2-yl]-N,N-dimethyl-benzamide] | ≤ 10 nM
CC(C)S(=O)(=O)c1ccc(-c2cnc(N)c(-c3nnc(-c4ccc(CNCCN(C)C)cc4)o3)n2)cc1 [IA-225, N-[[4-[5-[3-amino-6-(4-isopropylsulfonylphenyl)pyrazin-2-yl]-1,3,4-oxadiazol-2-yl]phenyl]methyl]-N′,N′-dimethyl-ethane-1,2-diamine] | 10 to 100 nM
CN(C)C1CCN(C(=O)c2c(F)cc(-c3cnc(N)c(-c4nnc(-c5ccccc5)o4)n3)cc2F)CC1 [IA-21] | 10 to 100 nM
CNCc1ccc(-c2nnc(-c3nc(-c4ccc(S(=O)(=O)C(C)C)cc4)cnc3N)o2)c(OC)c1 [IA-171, 5-(4-isopropylsulfonylphenyl)-3-[5-[2-methoxy-4-(methylaminomethyl)phenyl]-1,3,4-oxadiazol-2-yl]pyrazin-2-amine] | ≤ 10 nM

SMILES | Ki
COc1ccccc1NC(=O)c1nc(-c2cccc(C(N)=O)c2)cnc1N [Compound I-27, 3-amino-6-(3-carbamoylphenyl)-N-(2-methoxyphenyl)pyrazine-2-carboxamide] | 10 to 100 nM
CN(C)CCN(C)C(=O)c1cccc(-c2cnc(N)c(C(=O)Nc3ccccc3)n2)c1 [Compound I-52, 3-amino-6-(3-((2-(dimethylamino)ethyl)(methyl)carbamoyl)phenyl)-N-phenylpyrazine-2-carboxamide] | 100 to 5000 nM
COc1ccccc1NC(=O)c1nc(-c2ccco2)cnc1N [Compound I-30, 3-amino-6-(furan-2-yl)-N-(2-methoxyphenyl)pyrazine-2-carboxamide] | 10 to 100 nM
Nc1ncc(-c2ccccc2)nc1-c1nc2ccccc2[nH]1 [Compound I-110, 3-(1H-benzo[d]imidazol-2-yl)-5-phenylpyrazin-2-amine] | 100 to 5000 nM
CC(C)S(=O)(=O)c1ccc(-c2cnc(N)c(-c3nnc(CN)o3)n2)cc1 [IA-168, 3-[5-(aminomethyl)-1,3,4-oxadiazol-2-yl]-5-(4-isopropylsulfonylphenyl)pyrazin-2-amine] | 100 to 5000 nM
CC(C)S(=O)(=O)c1ccc(-c2cnc(N)c(-c3nnc(-c4ccc(O)cc4)o3)n2)cc1 [IA-193, 4-[5-[3-amino-6-(4-isopropylsulfonylphenyl)pyrazin-2-yl]-1,3,4-oxadiazol-2-yl]phenol] | ≤ 10 nM
CNCc1ccc(-c2nnc(-c3nc(-c4ccc(S(=O)(=O)C5CCOC5)cc4)cnc3N)o2)cc1 (centres unmarked) [IA-302, 3-[5-[4-(methylaminomethyl)phenyl]-1,3,4-oxadiazol-2-yl]-5-(4-tetrahydrofuran-3-ylsulfonylphenyl)pyrazin-2-amine] | ≤ 10 nM
Nc1ncc(-c2cccnc2)nc1-c1nnc(-c2cccs2)[nH]1 [IIIA-4, 5-(pyridin-3-yl)-3-(5-(thiophen-2-yl)-4H-1,2,4-triazol-3-yl)pyrazin-2-amine] | 10 to 100 nM
Cc1cccc(-c2nnc(-c3nc(-c4ccc(C(=O)N(C)C)cc4)cnc3N)o2)c1 [IA-237, 4-[5-amino-6-[5-(m-tolyl)-1,3,4-oxadiazol-2-yl]pyrazin-2-yl]-N,N-dimethyl-benzamide] | 10 to 100 nM
CN(C)CCNc1cc(-c2cnc(N)c(-c3nnc(-c4ccccc4)o3)n2)ccn1 [IA-265, N′-[4-[5-amino-6-(5-phenyl-1,3,4-oxadiazol-2-yl)pyrazin-2-yl]-2-pyridyl]-N,N-dimethyl-ethane-1,2-diamine] | 100 to 5000 nM
CC(C)S(=O)(=O)c1ccc(-c2cnc(N)c(-c3nnc(-c4cccc([C@@H](C)N)c4)o3)n2)cc1 [IA-80, 3-[5-[3-[(1R)-1-aminoethyl]phenyl]-1,3,4-oxadiazol-2-yl]-5-(4-isopropylsulfonylphenyl)pyrazin-2-amine] | ≤ 10 nM
C[C@H](Nc1nnc(-c2nc(-c3ccc(C(=O)N(C)C)cc3)cnc2N)o1)c1ccc(Cl)cc1 [IA-129, 4-[5-amino-6-[5-[[(1 S)-1-(4-chlorophenyl)ethyl]amino]-1,3,4-oxadiazol-2-yl]pyrazin-2-yl]-N,N-dimethyl-benzamide] | 10 to 100 nM
CNCc1ccc(-c2nnc(-c3nc(-c4ccc(S(=O)(=O)C5CCOC5)cc4)cnc3N)o2)c(F)c1 (centres unmarked) [IA-347, 3-[5-[2-fluoro-4-(methylaminomethyl)phenyl]-1,3,4-oxadiazol-2-yl]-5-(4-tetrahydrofuran-3-ylsulfonylphenyl)pyrazin-2-amine] | ≤ 10 nM
Cc1cccc(-c2cnc(N)c(-c3nnc(-c4ccccc4)o3)n2)c1 [IA-182, 5-(m-tolyl)-3-(5-phenyl-1,3,4-oxadiazol-2-yl)pyrazin-2-amine] | 100 to 5000 nM
CC(C)S(=O)(=O)c1ccc(-c2cnc(N)c(-c3nnc(-c4ccc(CN)s4)o3)n2)cc1 [IA-173, 3-[5-[5-(aminomethyl)-2-thienyl]-1,3,4-oxadiazol-2-yl]-5-(4-isopropylsulfonylphenyl)pyrazin-2-amine] | ≤ 10 nM
N#Cc1cnccc1-c1cnc(N)c(C(=O)Nc2ccccc2)n1 [Compound I-2, 3-amino-6-(3-cyanopyridin-4-yl)-N-phenylpyrazine-2-carboxamide] | ≤ 10 nM
Cc1ccc2nc(-c3nc(-c4ccc(C(=O)N5CCC(N(C)C)CC5)cc4)cnc3N)[nH]c2c1 [Compound I-148, (4-(5-amino-6-(6-methyl-1H-benzo[d]imidazol-2-yl)pyrazin-2-yl)phenyl)(4-(dimethylamino)piperidin-1-yl)methanone] | 10 to 100 nM
Nc1ncc(-c2ccc(C(=O)N3CCCNCC3)cc2)nc1C(=O)Nc1ccccc1 [Compound I-43, 6-(4-(1,4-diazepane-1-carbonyl)phenyl)-3-amino-N-phenylpyrazine-2-carboxamide] | 10 to 100 nM
Nc1ncc(-c2ccc(C(=O)N3CCCNCC3)cc2)nc1C(=O)Nc1nc2ccccc2s1 [Compound V-9] | 10 to 100 nM
CNCc1ccc(-c2nnc(-c3nc(-c4ccc(S(=O)(=O)C(C)C)c(Cl)c4)cnc3N)o2)c(F)c1 [IA-329, 5-(3-chloro-4-isopropylsulfonyl-phenyl)-3-[5-[2-fluoro-4-(methylaminomethyl)phenyl]-1,3,4-oxadiazol-2-yl]pyrazin-2-amine] | ≤ 10 nM
